# Test results reported in US9745283B2, “Uracil derivatives as AXL and c-MET kinase inhibitors” (priority 2011, dated 2017).
# pIC50: −log10 of the molar value.
# Biological target: recombinant human baculovirus-expressed cMET (Homo sapiens (Human), UniProt P08581)
# Experiment: C-MET Kinase Assay (HTRF KinEASE)
# Assay type: biochemical
# Conditions: average of two or more determinations; read-out: c-MET IC50
# Method: The cMET kinase assay was performed in 384-well Fluotrac™ 200 HiBase microplates using the HTRF KinEASE™ assay described above for AXL except that the assay volume was reduced to half. Enzyme concentration was 8 ng/mL of recombinant human baculovirus-expressed cMET while the substrate concentrations were 0.1 μM and 0.02 μM for the biotinylated peptide and ATP, respectively. Instead of the Multidrop Combi, the BioRAPTR® FRD microfluidic workstation (Beckman Coulter, Brea, Calif.) was utilized for reagent additions.
# Inhibition curves for compounds were generated by plotting percent control activity versus log 10 of the concentration of compound. IC50 values were calculated by nonlinear regression using the sigmoidal dose-response (variable slope) equation in GraphPad Prism as follows: y=bottom+(top−bottom)/(1+10(log IC50−x)*Hill Slope) where y is the % kinase activity at a given concentration of compound, x is the logarithm of the concentration of compound, bottom is the % of control kinase activity at the highest compound concentration tested, and top is the % of control kinase activity at the lowest compound concentration examined. The values for bottom and top were fixed at 0 and 100, respectively.
row,Compound,pIC50
1,"COc1cc2nccc(Oc3ccc(NC(=O)c4cn(CCOCc5ccccc5)c(=O)n(-c5ccc(F)cc5)c4=O)cc3F)c2cc1OC [Example 10, 1-(2-Benzyloxyethyl)-3-(4-fluorophenyl)-2,4-dioxo-1,2,3,4-tetrahydropyrimidine-5-carboxylic acid [4-(6,7-dimethoxyquinolin-4-yloxy)-3-fluorophenyl]-amide]",7.00 to 8.00
2,"COc1cc2nccc(Oc3ccc(NC(=O)c4cn(CCCOCc5ccccc5)c(=O)n(-c5ccc(F)cc5)c4=O)cc3F)c2cc1OC [Example 13, 1-(3-Benzyloxypropyl)-3-(4-fluorophenyl)-2,4-dioxo-1,2,3,4-tetrahydropyrimidine-5-carboxylic acid [4-(6,7-dimethoxyquinolin-4-yloxy)-3-fluorophenyl]-amide]",7.00 to 8.00
3,"COc1cc2nccc(Oc3ccc(NC(=O)c4cn(CC=C(C)C)c(=O)n(-c5ccc(F)cc5)c4=O)cc3F)c2cc1OC [Example 15, 3-(4-Fluorophenyl)-1-(3-methyl-but-2-enyl)-2,4-dioxo-1,2,3,4-tetrahydropyrimidine-5-carboxylic acid [4-(6,7-dimethoxyquinolin-4-yloxy)-3-fluorophenyl]-amide]",7.00 to 8.00
4,"COc1cc2nccc(Oc3ccc(NC(=O)c4cn(CCOCc5ccccc5)c(=O)n(-c5ccc(F)cc5)c4=O)cc3)c2cc1OC [Example 19, 1-(2-Benzyloxyethyl)-3-(4-fluoro-phenyl)-2,4-dioxo-1,2,3,4-tetrahydropyrimidine-5-carboxylic acid [4-(6,7-dimethoxyquinolin-4-yloxy)-phenyl]-amide]",7.00 to 8.00
5,"CCOc1cc2nccc(Oc3ccc(NC(=O)c4cn(C(C)C)c(=O)n(-c5ccc(F)cc5)c4=O)cc3F)c2cc1OCC [Example 37, 3-(4-Fluorophenyl)-1-isopropyl-2,4-dioxo-1,2,3,4-tetrahydropyrimidine-5-carboxylic acid [4-(6,7-diethoxyquinolin-4-yloxy)-3-fluoro-phenyl]-amide]",6.00 to 7.00

# Next, values leading:
row,pIC50,Compound
1,7.00 to 8.00,"COc1cc2nccc(Oc3ccc(NC(=O)c4cn(CCOC(C)C)c(=O)n(-c5ccc(F)cc5)c4=O)cc3F)c2cc1OC [Example 12, 3-(4-Fluorophenyl)-1-(2-isopropoxyethyl)-2,4-dioxo-1,2,3,4-tetrahydropyrimidine-5-carboxylic acid [4-(6,7-dimethoxyquinolin-4-yloxy)-3-fluorophenyl]-amide]"
2,6.00 to 7.00,"CCn1cc(C(=O)Nc2ccc(Oc3ccnc4cc(OC)c(OC)cc34)c(F)c2)c(=O)n(C2CCCCC2)c1=O [Example 25, 3-Cyclohexyl-1-ethyl-2,4-dioxo-1,2,3,4-tetrahydropyrimidine-5-carboxylic acid [4-(6,7-dimethoxyquinolin-4-yloxy)-3-fluorophenyl]-amide]"
3,7.00 to 8.00,"COc1cc2nccc(Oc3ccc(NC(=O)c4cn(CC5CC5)c(=O)n(-c5ccc(F)cc5)c4=O)nc3)c2cc1OC [Example 35, 1-Cyclopropylmethyl-3-(4-fluorophenyl)-2,4-dioxo-1,2,3,4-tetrahydropyrimidine-5-carboxylic acid [5-(6,7-dimethoxyquinolin-4-yloxy)pyridin-2-yl]-amide]"
4,7.00 to 8.00,"CCCCCn1cc(C(=O)Nc2ccc(Oc3ccnc4cc(OC)c(OC)cc34)c(F)c2)c(=O)n(-c2ccc(F)cc2)c1=O [Example 36, 3-(4-Fluorophenyl)-2,4-dioxo-1-pentyl-1,2,3,4-tetrahydropyrimidine-5-carboxylic acid [4-(6,7-dimethoxyquinolin-4-yloxy)-3-fluorophenyl]-amide]"
5,7.00 to 8.00,"CCn1cc(C(=O)Nc2ccc(Oc3ccnc4cc(OCc5ccccc5)c(OC)cc34)c(F)c2)c(=O)n(-c2ccc(F)cc2)c1=O [Example 40, 1-Ethyl-3-(4-fluorophenyl)-2,4-dioxo-1,2,3,4-tetrahydropyrimidine-5-carboxylic acid [4-(7-benzyloxy-6-methoxyquinolin-4-yloxy)-3-fluorophenyl]-amide]"
